US10517842B2, “Methods of modulating miRNA levels and compositions for use in the same” (Los Angeles Biomedical Research Institute at Harbor-UCLA …, priority 2017, dated 2019)

Legend:
Format in all cases: cell-based, human
miR-200c promoter = assay: Methylation-specific PCR in LSMC; details: Tranilast 200 μM, 24 hrs, Me/Me+Un, P<0.05
Experimental: (§1) LSMC at sub-confluence were treated with Tranilast (200 μM) for 24 hrs and genomic DNA was extracted and treated with bisulfite (EZ DNA Methylation Kit, Zymo Research Corporation, Irvine, Calif.). Since methylated cytosine residues remained unchanged after bisulfite conversion, this approach allows distinguishing DNA sequences which are methylated or unmethylated in specific genomic regions using sequence-specific PCR primers (Li & Dahiya, “MethPrimer: designing primers for methylation PCRs,” Bioinformatics (2002)18:1427-31). The pair of primers used to detect the methylated (Me) sequence of miR-29c promoter were 5′-[…]-3′ (SEQ ID NO:17) and 5′-[…]-3′ (SEQ ID NO:18) and for the unmethylated (Un) sequence of miR-29c promoter were 5′-[…]-3′ (SEQ ID NO:19) and 5′-[…]-3′ (SEQ ID NO:20). The pair of primers used to detect the methylated (Me) sequence of miR-200c promoter were 5′-[…]-3′ (SEQ ID NO:21) and 5′-[…]-3′ (SEQ ID NO:22), and for the unmethylated (Un) sequence of miR-200c promoter were 5′-[…]-3′ (SEQ ID NO:23) and 5′-[…]-3′ (SEQ ID NO:24). DNA amplification was carried out following manufacturer's protocol (HotStarTaq Plus PCR reagent, Qiagen, Valencia, Calif.). The PCR condition was 5 min at 95° C., followed by 40 cycles of amplification at 94° C. for 30 seconds, 30 seconds at 55° C., and 1 min at 72° C. […]

miR-29c promoter = assay: Methylation-specific PCR in LSMC; details: Tranilast 200 μM, 24 hrs, Me/Me+Un, P<0.05
Experimental: as §1

miR-200c = assay: Quantitative RT-PCR (TaqMan miRNA assay), cellular and secreted miRNA in LSMC; details: Tranilast 200 μM, 48 hours, P<0.05
Experimental: (§2) Total RNA was extracted from LSMC using RNAzol (GeneCopoeia, Rockville, Md.) and their quantity and quality was determined (ND-1000 Spectrophotometer, NanoDrop Technologies, Wilmington, Del.) as previously described (Chuang & Khorram, “miR-200c Regulates IL8 Expression by Targeting IKBKB: A Potential Mediator of Inflammation in Leiomyoma Pathogenesis,” PloS one (2014) 9:e95370). For medium miRNA extraction, 5 pg of synthetic miR-1 from Caenorhabditis elegans (cel-miR-1) was added as a spike-in control for purification efficiency. Subsequently, 2 μg or 10 ng (for miRNA) was reverse transcribed using random primers for CCND1, CDK2, COL1A1, COL3A1, TGF-β3, DNMT1 and EZH2 or specific primers for miR-29c and miR-200c according to the manufacturer's guidelines (Applied Biosystems, Carlsbad, Calif.). Quantitative RT-PCR was carried out using SYBR gene expression master mix or TaqMan miRNA expression assays (Applied Biosystems). Reactions were incubated for 10 min at 95° C. followed by 40 cycles for 15 seconds at 95° C. and 1 min at 60° C. The level of mRNAs and expression of cellular and secreted miRNA was determined using the Invitrogen StepOne System with 18S, RNU6B and cel-miR-1 used for normalization respectively. All reactions were run in triplicate and relative expression was analyzed with the comparative cycle threshold method (2^−ΔΔCT) according to the manufacturer (Applied Biosystems). Values were expressed as fold change compared to the control group.

miR-29c = assay: as above; details: Tranilast 200 μM, 48 hours, P<0.05
Experimental: as §2

COc1ccc(C=CC(=O)Nc2ccccc2C(=O)O)cc1OC [Tranilast, 2-[[3-(3,4-dimethoxyphenyl)-1-oxo-2-propenyl]amino]benzoic acid]
methylation status in miR-200c promoter (miR-200c promoter): significantly suppressed | methylation status in miR-29c promoter (miR-29c promoter): significantly suppressed | expression of secreted (medium) miR-200c (miR-200c; LSMC medium): significantly increased | expression of cellular miR-200c (miR-200c; LSMC): significantly increased | expression of secreted (medium) miR-29c (miR-29c; LSMC medium): significantly increased | expression of cellular miR-29c (miR-29c; LSMC): significantly increased
